Consider 2 compounds from EP0729362B1, “TRANSDERMAL COMPOSITION OF N- N- 5- 4-(AMINOIMINOMETHYL)PHENYL]-1-OXOPENTYL]-L-alpha-ASPARTYL]-L-PHENYLALANINE OR ITS ESTERS AND THEIR PHARMACEUTICALLY ACCEPTABLE SALTS” (G.D. SEARLE & CO., priority 1993, dated 1995).

The data set can be described thus: transdermal shaved rat model: delivery of tritiated compound from a gel patch, counted in urine and feces. In kind it is in vivo, Rats. To be noted: 2.5 cm^2 patch.

Text: Rats were anesthetized with N2O/O2 and [sequence] fluorocarbon anesthesia using a metering device (Quantifier VMC Anesthesia Machine, Matrix Media Inc.) The rat's back was carefully shaved using an electric razor the day before the transdermal experiment, and no abrasions in the skin surface were apparent.
Compound was applied to the skin using a Hilltop Chamber® transdermal delivery plastic device, in which the compound was contained in a 3% hydroxypropyl cellulose gel. The device was glued in place using cyanomethacrylate (Superbinder 495, Newark Electronics).
The aqueous formulation was 2% in N-[N-[5-[4-(aminoiminomethyl)phenyl]-1-oxopentyl]-L-α-aspartyl]-L-phenylalanine, monohydrochloride (10 mg N-[N-[5-[4-(aminoiminomethyl)phenyl]-1-oxopentyl]-L-α-aspartyl]-L-phenylalanine, monohydrochloride 0.5 ml gel/2.5 cm^2 patch). […] The amount of compound in a sample was calculated from the number of counts detected and the specific radioactivity of the compound in the patch.
Urine and feces were collected daily after patch application as indicated in the Table I. Counts were combined to achieve the total amount delivered. Urine was counted directly by scintillography (Hionic Fluid, Packard Co., Mark III), while feces, were processed by mechanical mixing in saline followed by oxidization of a dried aliquot to tritiated water in an oxidizer (Oxidizer Machine, Packard).

On to `CCOC(=O)C[C@H](NC(=O)CCCCc1ccc(C(=N)N)cc1)C(=O)N[C@@H](Cc1ccccc1)C(=O)OCC` [N-[N-[5-[4-(aminoiminomethyl)phenyl]-1-oxopentyl]-L-α-aspartyl]-L-phenylalanine diethyl ester], for which, under “urine and feces counts combined for the total amount delivered”, the average amount delivered is listed as 4.6 ± 1.9 mg.

For the compound “N-[N-[5-[4-(aminoiminomethyl)phenyl]-1-oxopentyl]-L-α-aspartyl]-L-phenylalanine, monohydrochloride”, the “average amount delivered into the urine” value (amount calculated from [3H] counts) is reported as 48 mg.
